In patent US6479514B1, “Quinoline-aminomethyl-pyridyl derivatives with anti-helicobacter activity” (Altana Pharma AG, priority 1998, dated 2002) one finds melting point and MIC50 data, which are given here for two compounds.

One may read the melting point as the temperature, or range, at which the solid turns liquid.

For one series, the system named is Helicobacter pylori. Description: Activity against Helicobacter pylori, agar dilution (method of Iwahi et al.), Columbia agar, 4 days growth. It counts as cell-based. The conditions noted are these: 96 h, Columbia agar (Oxoid), growth period of 4 days, approximate values, read-out: Appr. MIC 50. An excerpt: The compounds of the formula I were investigated with respect to their activity against Helicobacter pylori following the method described by Tomoyuki Iwahi et al. (Antimicrobial Agents and Chemotherapy, 1991, 490-496) using Columbia agar (Oxoid) and a growth period of 4 days.
For orientation: In agar dilution the substance is mixed into plates at graded concentrations.

Bounds are passed on as bounds.

The compound `Cc1c(SCC2CCCN(C)C2)ccnc1CNc1cnc2ccccc2c1` (stereo not shown) [Compound 32, [3-Methyl-4-(1-methyl-piperidin-3-ylmethylsulfanyl)-pyridin-2-ylmethyl]-quinolin-3-yl-amine] gave a melting point of 106 to 108 °C. The MIC50 in the series on Helicobacter pylori was at most 0.1 µg/mL.

As to `Cc1c(SCCOCC(F)(F)F)ccnc1CNc1cnc2ccccc2c1.Cl` [Compound 36, (3-Methyl-4-{2-[2,2,2-trifluoro-ethoxy)-ethylsulfanyl}-pyridin-2-ylmethyl)-quinolin-3-yl-amine hydrochloride], the melting point is 212 to 215 °C (dec.). Also, the MIC50 in the series on Helicobacter pylori was at most 0.1 µg/mL.
